Measurements: publication PMC3565318, “Catalytic Mechanism of Short Ethoxy Chain Nonylphenol Dehydrogenase Belonging to a Polyethylene Glycol Dehydrogenase Group in the GMC Oxidoreductase Family” (International Journal of Molecular Sciences, 2013)

Target: T1, NPEO-DH (short ethoxy chain nonylphenol dehydrogenase) (Ensifer sp. AS08, UniProt Q2HXX0)
T1 construct: gene pegdh; complete ORF (1659 bp, 553 residues) in pCold I, His-tag, expressed in E. coli BL21(DE3) pLysS, Ni-NTA purified; FAD flavoprotein
Test: stopped-flow, absorbance at […] nm
Format: biochemical
Conditions: electron acceptor; PEG 1000-reduced enzyme, 0.01 mM DCIP, 0.1 M Tris-HCl pH 8.0, 30 °C

T1 sequence (Q2HXX0 entry or part of it): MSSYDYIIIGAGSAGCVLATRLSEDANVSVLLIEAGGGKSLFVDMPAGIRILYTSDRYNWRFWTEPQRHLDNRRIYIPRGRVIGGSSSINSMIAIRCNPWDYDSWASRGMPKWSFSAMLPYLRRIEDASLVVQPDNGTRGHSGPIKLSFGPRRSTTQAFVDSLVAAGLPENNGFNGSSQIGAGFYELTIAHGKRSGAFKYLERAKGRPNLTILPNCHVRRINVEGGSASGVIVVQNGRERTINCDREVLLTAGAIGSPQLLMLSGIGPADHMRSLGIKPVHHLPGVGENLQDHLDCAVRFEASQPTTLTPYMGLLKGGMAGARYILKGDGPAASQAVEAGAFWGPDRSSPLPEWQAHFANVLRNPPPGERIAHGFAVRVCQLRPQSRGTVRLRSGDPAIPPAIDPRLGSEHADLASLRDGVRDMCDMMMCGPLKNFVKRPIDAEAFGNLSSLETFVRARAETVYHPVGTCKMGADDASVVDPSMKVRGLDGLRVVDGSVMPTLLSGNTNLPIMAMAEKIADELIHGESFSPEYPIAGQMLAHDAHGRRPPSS

Q: `O=C1C(Cl)=CC(=Nc2ccc(O)cc2)C=C1Cl` [2,6-dichloroindophenol] was tested. Which “stopped-flow, absorbance at 600 nm” value did it give?
A: The value was “performed with the reduced form of enzyme (reduced flavin) and a minimal concentration of DCIP”.
